Where two headings read alike, the source gives them in different places.
Columns and labels:
[1] = biological target: hDAT (Homo sapiens (Human), UniProt Q01959); test: DAT radioligand binding assay ([125I]RTI-55, HEK-293 membranes); conditions: for inhibition at 0.1 µM: 100 nM, DAT IC50 with footnote *
Description: (§1) Recombinant HEK-293 cells expressing either the hSERT, hDAT, or hNET proteins were harvested from T-175 flasks as follows. The medium was removed from the flasks and the cells rinsed with HBSS without Ca and without Mg. The cells were then incubated for 5-10 minutes in 10 mM Tris-Cl, pH 7.5, 5 mM EDTA before the cells were lifted with a combination of pipetting and scraping, as needed. The cell suspension was collected into centrifuge bottles and homogenized for 30 seconds with a Polytron homogenizer. The suspension was centrifuged for 30 minutes at 32,000×g, 4° C. The supernatant was decanted and the pellet resuspended and homogenized in 50 mM Tris-Cl, pH 7.5, 1 mM EDTA for 10 seconds. The suspension was then centrifuged again for 30 minutes at 32,000×g, 4° C. The supernatant was decanted and the pellet resuspended in 50 mM Tris-Cl, pH 7.5, 1 mM EDTA and briefly homogenized. A Bradford assay (Bio-rad) was performed and the membrane preparation diluted to 2 mg/ml with 50 mM Tris-Cl, pH 7.5, 1 mM EDTA. Aliquots were prepared, and then frozen and stored at −80° C.
Compounds were dissolved in 100% DMSO at a concentration 100 times the desired highest assay concentration, serially diluted 1:3 in 100% DMSO, and 0.4 μl/well of each solution was dispensed to a Nunc polypropylene, round bottom, 384-well plate. 100% inhibition is defined with 0.4 μl/well of 1 mM GBR-12935 dissolved in DMSO. 20 ul/well of a 2× membrane preparation (12.5 μg/ml in 30 mM sodium phosphate buffer, pH 7.9 at 4° C.) and 20 μl/well of a 2× radioligand solution ([…] [^125I]RTI-55 in 30 mM sodium phosphate buffer, pH 7.9 at 4° C.) were added to the well and the reaction incubated for 1 hour at room temperature. The contents of the assay plate were then transferred to a Millipore MultiscreenHTS GF/B filter plate which was pretreated with 0.5% PEI for at least one hour. The plate was vacuum-filtered and washed with 7 washes of 100 μl/well 50 mM Tris-Cl, pH 7.5, 120 mM NaCl, 5 mM KCl chilled to 4° C. The filtration and washing were completed in less than 90 seconds. The plates were air-dried overnight, 12 μl/well of MicroScint scintillation fluid added, and the plates counted in a Trilux.
(§2) The raw data was normalized to percent inhibition using control wells defining 0% (DMSO only) and 100% (selective inhibitor) inhibition which were run on each plate. Each plate was run in triplicate, and the concentration response curve thus generated was fit using the four-parameter dose response equation, Y=Bottom+(Top-Bottom)/(1+10^((LogIC50−X)*HillSlope)) in order to determine the IC50 value for each compound. The radioligand concentration chosen for each assay corresponds to the Kd concentration determined through saturation binding analysis for each assay.

[2] = biological target: hSERT (Homo sapiens (Human), UniProt P31645); test: SERT radioligand binding assay ([125I]RTI-55, HEK-293 membranes); conditions: for inhibition at 0.1 µM: 100 nM, SERT IC50 with footnote *
Description: as §1, with “The” for “Recombinant HEK-293 cells expressing either the hSERT, hDAT, or hNET proteins were harvested from T-175 flasks as follows. The”
Compounds were dissolved in 100% DMSO at a concentration 100 times the desired highest assay concentration, serially diluted 1:3 in 100% DMSO, and 0.4 μl/well of each solution was dispensed to a Nunc polypropylene, round bottom, 384-well plate. […] The contents of the assay plate were then transferred to a Millipore MultiscreenHTS GF/B filter plate which was pretreated with 0.5% PEI for at least one hour. The plate was vacuum filtered and washed with 7 washes of 100 μl/well 50 mM Tris-Cl, pH 7.5, 120 mM NaCl, 5 mM KCl chilled to 4° C. The filtration and washing were completed in less than 90 seconds. The plates were air-dried overnight, 12 μl/well of MicroScint scintillation fluid added, and the plates counted in a Trilux.
as §2, with “Each” for “The raw data was normalized to percent inhibition using control wells defining 0% (DMSO only) and 100% (selective inhibitor) inhibition which were run on each plate. Each”

[3] = biological target: hNET (Homo sapiens (Human), UniProt P23975); test: NET radioligand binding assay ([3H]nisoxetine, HEK-293 membranes); conditions: for IC50: (+)-enantiomers; for inhibition at 0.1 µM: 100 nM, NET IC50 with footnote *
Description: as §1
Compounds were dissolved in 100% DMSO at a concentration 100 times the desired highest assay concentration, serially diluted 1:3 in 100% DMSO, and 1.0 μl/well of each solution was dispensed to a Nunc polypropylene, round bottom, 384-well plate. 100% inhibition is defined with 1.0 μl/well of 10 mM desipramine dissolved in DMSO. 50 μl/well of a 2× membrane preparation (0.4 mg/ml in 50 mM Tris-Cl, pH 7.5, 120 mM NaCl, 5 mM KCl) and 50 μl/well of a 2× radioligand solution (4 nM [^3H]nisoxetine in 50 mM Tris-Cl, pH 7.5, 120 mM NaCl, 5 mM KCl) were added to the well and the reaction incubated for 1 hour at room temperature. The contents of the assay plate were then transferred to a Millipore MultiscreenHTS GF/B filter plate which was pretreated with 0.5% PEI for at least one hour. The plate was vacuum filtered and washed with 7 washes of 100 μl/well 50 mM Tris-Cl, pH 7.5, 120 mM NaCl, 5 mM KCl chilled to 4° C. The filtration and washing were completed in less than 90 seconds. The plates were air-dried overnight, 12 μl/well of MicroScint scintillation fluid added, and the plates counted in a Trilux.
as §2

[4] = (+)-enantiomers, read-out: DAT IC50
[5] = (+)-enantiomers, read-out: SERT IC50

Chain of hSERT (P31645 whole entry): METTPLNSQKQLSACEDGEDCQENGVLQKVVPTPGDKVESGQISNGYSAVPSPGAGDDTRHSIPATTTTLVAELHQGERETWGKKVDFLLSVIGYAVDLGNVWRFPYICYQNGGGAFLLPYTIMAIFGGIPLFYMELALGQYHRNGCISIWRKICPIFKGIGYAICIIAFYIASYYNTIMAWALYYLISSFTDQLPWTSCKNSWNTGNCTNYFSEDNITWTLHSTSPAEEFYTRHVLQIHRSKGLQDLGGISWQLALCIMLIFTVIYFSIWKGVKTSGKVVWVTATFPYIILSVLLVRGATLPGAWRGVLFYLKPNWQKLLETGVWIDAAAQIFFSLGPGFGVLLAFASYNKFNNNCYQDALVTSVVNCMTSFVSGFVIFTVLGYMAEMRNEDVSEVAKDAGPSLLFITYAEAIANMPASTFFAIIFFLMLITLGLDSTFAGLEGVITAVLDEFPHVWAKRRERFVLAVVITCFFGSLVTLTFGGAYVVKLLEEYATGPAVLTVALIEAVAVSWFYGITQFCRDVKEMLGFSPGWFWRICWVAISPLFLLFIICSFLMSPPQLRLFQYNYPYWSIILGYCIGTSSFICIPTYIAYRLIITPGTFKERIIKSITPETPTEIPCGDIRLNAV
Chain of hNET (P23975 whole entry): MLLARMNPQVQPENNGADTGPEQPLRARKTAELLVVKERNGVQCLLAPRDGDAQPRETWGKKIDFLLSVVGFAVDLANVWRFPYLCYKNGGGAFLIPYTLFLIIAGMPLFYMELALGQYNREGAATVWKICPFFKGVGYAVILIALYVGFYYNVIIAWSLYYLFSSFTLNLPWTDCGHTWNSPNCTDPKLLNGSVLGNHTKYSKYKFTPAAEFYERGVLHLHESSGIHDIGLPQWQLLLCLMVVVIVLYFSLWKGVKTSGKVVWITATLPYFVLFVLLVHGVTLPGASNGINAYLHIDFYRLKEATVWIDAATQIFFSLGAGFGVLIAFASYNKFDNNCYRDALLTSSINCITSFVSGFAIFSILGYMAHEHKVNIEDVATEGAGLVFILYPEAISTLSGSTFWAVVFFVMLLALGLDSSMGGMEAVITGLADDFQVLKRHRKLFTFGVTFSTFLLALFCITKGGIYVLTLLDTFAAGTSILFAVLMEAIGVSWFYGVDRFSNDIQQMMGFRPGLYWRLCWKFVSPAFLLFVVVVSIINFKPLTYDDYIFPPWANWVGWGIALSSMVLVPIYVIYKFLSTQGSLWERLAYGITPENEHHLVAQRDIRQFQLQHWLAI
Chain of hDAT (Q01959 whole entry): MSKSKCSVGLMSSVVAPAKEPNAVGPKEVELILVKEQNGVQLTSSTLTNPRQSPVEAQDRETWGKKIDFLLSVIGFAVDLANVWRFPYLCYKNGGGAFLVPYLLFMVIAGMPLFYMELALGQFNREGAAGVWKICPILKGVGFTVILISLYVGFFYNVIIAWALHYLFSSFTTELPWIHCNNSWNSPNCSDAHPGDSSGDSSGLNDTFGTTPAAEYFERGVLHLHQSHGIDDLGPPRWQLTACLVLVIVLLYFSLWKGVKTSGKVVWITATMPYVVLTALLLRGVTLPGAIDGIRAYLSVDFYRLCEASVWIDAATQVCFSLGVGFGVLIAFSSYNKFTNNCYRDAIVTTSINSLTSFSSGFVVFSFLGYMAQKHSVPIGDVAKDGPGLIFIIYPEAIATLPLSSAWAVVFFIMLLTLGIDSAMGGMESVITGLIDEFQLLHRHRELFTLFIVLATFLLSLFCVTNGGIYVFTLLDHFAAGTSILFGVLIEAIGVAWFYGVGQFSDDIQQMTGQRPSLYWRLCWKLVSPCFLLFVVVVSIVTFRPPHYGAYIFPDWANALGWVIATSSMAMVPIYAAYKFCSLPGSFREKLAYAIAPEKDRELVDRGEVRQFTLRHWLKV

Compound | IC50 [1, 4] [nM] | IC50 [2, 5] [nM] | IC50 [3] [nM] | inhibition at 0.1 µM [1] [%] | inhibition at 0.1 µM [2] [%] | inhibition at 0.1 µM [3] [%] | IC50 [1] [nM] | IC50 [2] [nM]
CS(=O)(=O)c1cccc(-c2cc3c(cc2F)C(c2ccc(Cl)c(Cl)c2)CNC3)c1 (stereo not shown) [Example 23, 4-(3,4-dichlorophenyl)-6-fluoro-7-(3-(methylsulfonyl)phenyl)-1,2,3,4-tetrahydroisoquinoline] | 101 | 83.6 | 283 |  |  |  |  | 
Fc1cc2c(cc1-c1ccc(C(F)(F)F)nn1)CNCC2c1ccc(Cl)c(Cl)c1 (single isomer, unassigned; (+)) [Example 29, (+)-4-(3,4-dichlorophenyl)-6-fluoro-7-(6-(trifluoromethyl)pyridazin-3-yl)-1,2,3,4-tetrahydroisoquinoline] | 78.3 | 29.7 | 34.1 |  |  |  |  | 
NC(=O)c1ccc(-c2cc3c(cc2F)C(c2ccc(Cl)c(Cl)c2)CNC3)cc1 (stereo not shown) [Example 26, 4-(4-(3,4-dichlorophenyl)-6-fluoro-1,2,3,4-tetrahydroisoquinolin-7-yl)benzamide] | 5.8 | 24.5 | 23.3 |  |  |  |  | 
Fc1cc2c(cc1-c1ccc(OC(F)F)nn1)CNCC2c1ccc(Cl)c(Cl)c1 (single isomer, unassigned; (+)) [Example 31, (+)-4-(3,4-dichlorophenyl)-7-(6-(difluoromethoxy)pyridazin-3-yl)-6-fluoro-1,2,3,4-tetrahydroisoquinoline] | 33 | 15.9 | 9.8 |  |  |  |  | 
NC(=O)c1ccc(-c2cc3c(cc2F)C(c2ccc(Cl)cc2)CNC3)cc1 (stereo not shown) [Example 30, 4-(4-(4-chlorophenyl)-6-fluoro-1,2,3,4-tetrahydroisoquinolin-7-yl)benzamide] | 24.5 | 101 | 215 |  |  |  |  | 
CC1NCC(c2ccc(Cl)cc2)c2ccc(-c3ccc(Cl)nn3)cc21 (stereo not shown) [Example 6, 4-(4-Chloro-phenyl)-7-(6-chloro-pyridazin-3-yl)-1-methyl-1,2,3,4-tetrahydro-isoquinoline] |  |  |  | 9 | 35 | 0 |  | 
Nc1ccc(-c2ccc3c(c2)CNCC3c2ccc(F)cc2)nn1 (stereo not shown) [Example 2, 6-(4-(4-fluorophenyl)-1,2,3,4-tetrahydroisoquinolin-7-yl)pyridazin-3-amine] | 89.4 | 144 | 360 |  |  |  |  | 
CC1NCC(c2ccc(Cl)cc2)c2ccc(-c3cccnn3)cc21 (stereo not shown) [Example 7, 4-(4-Chloro-phenyl)-7-(pyridazin-3-yl)-1-methyl-1,2,3,4-tetrahydro-isoquinoline] |  |  |  | 16 | 35 | 0 |  | 
O=c1cccnn1-c1ccc2c(c1)CNCC2c1ccc(Cl)c(Cl)c1 (stereo not shown) [Example 18, 2-(4-(3,4-dichlorophenyl)-1,2,3,4-tetrahydroisoquinolin-7-yl)pyridazin-3(2H)-one] | 29.9 | 6.1 | 132 |  |  |  |  | 
FC(F)(F)c1ccc(-c2ccc3c(c2)NCCC3c2ccc(Cl)cc2)nn1 (single isomer, unassigned; (+)) [Example 4, (+)-4-(4-chlorophenyl)-7-(6-(trifluoromethyl)pyridazin-3-yl)-1,2,3,4-tetrahydroquinoline] | 138 | 21.4 | 47.3 |  |  |  |  | 
Nc1ccc(-c2ccc3c(c2)CNCC3c2ccc(Cl)cc2)nn1 (single isomer, unassigned; (+)) [Example 5, (+)-6-(4-(4-chlorophenyl)-1,2,3,4-tetrahydroisoquinolin-7-yl)pyridazin-3-amine] | 31.2 | 15.8 | 63.1 |  |  |  |  | 
CC1(C)NCC(c2ccc(Cl)c(Cl)c2)c2ccc(-c3ccc(C(F)(F)F)nn3)cc21 (single isomer, unassigned) [Example 10, 4-(3,4-dichlorophenyl)-7-(6-(trifluoromethyl)pyridazin-3-yl)-1,1-dimethyl-1,2,3,4-tetrahydroisoquinoline] |  |  | 549 |  |  |  |  | 
CNc1ccc(-c2ccc3c(c2)CNCC3c2ccc(F)cc2)nn1 (single isomer, unassigned; (+)) [Example 3, (+)-6-(4-(4-fluorophenyl)-1,2,3,4-tetrahydroisoquinolin-7-yl)-N-methylpyridazin-3-amine] | 90.5 | 53.8 | 150 |  |  |  |  | 
COc1ccc(-c2ccc3c(c2)C(C)NCC3c2ccc(Cl)cc2)nn1 (stereo not shown) [Example 8, 4-(4-Chloro-phenyl)-7-(6-methoxy-pyridazin-3-yl)-1-methyl-1,2,3,4-tetrahydro-isoquinoline] |  |  |  | 30 | 59 | 49 |  | 
CS(=O)(=O)c1ccc(-c2ccc3c(c2)CNCC3c2ccc(Cl)c(Cl)c2)cc1 (stereo not shown) [Example 16, 4-(3,4-dichlorophenyl)-7-(4-(methylsulfonyl)phenyl)-1,2,3,4-tetrahydroisoquinoline] | 77 | 20 | 13 |  |  |  |  | 
N#Cc1cccc(-c2ccc3c(c2)CNCC3c2ccc(Cl)c(Cl)c2)c1 (stereo not shown) [Example 15, 3-(4-(3,4-dichlorophenyl)-1,2,3,4-tetrahydroisoquinolin-7-yl)benzonitrile] | 213 | 14 | 86 |  |  |  |  | 
CC1(C)NCC(c2ccc(Cl)cc2)c2ccc(-c3ccc(C(F)(F)F)nn3)cc21 (single isomer, unassigned) [Example 35, 4-(4-chlorophenyl)-1,1-dimethyl-7-(6-(trifluoromethyl)pyridazin-3-yl)-1,2,3,4-tetrahydroisoquinoline] |  |  | 1020 |  |  |  | 80.2 | 61.1
O=c1ccccn1-c1ccc2c(c1)CNCC2c1ccc(Cl)c(Cl)c1 (stereo not shown) [Example 17, 1-(4-(3,4-dichlorophenyl)-1,2,3,4-tetrahydroisoquinolin-7-yl)pyridin-2(1H)-one] | 84.7 | 6.9 | 421 |  |  |  |  | 
